This is an account of results in patent US10428051B2 (priority 2015, dated 2019).

Sequence of human σ1 receptor (Q99720 whole entry): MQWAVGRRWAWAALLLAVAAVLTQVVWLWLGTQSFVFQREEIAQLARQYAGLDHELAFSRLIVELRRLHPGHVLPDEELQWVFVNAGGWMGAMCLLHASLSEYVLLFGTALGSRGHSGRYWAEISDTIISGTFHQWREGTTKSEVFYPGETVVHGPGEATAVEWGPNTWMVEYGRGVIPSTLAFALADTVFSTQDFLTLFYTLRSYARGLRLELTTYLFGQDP

The first experiment has as its target human σ1 receptor (Homo sapiens, UniProt Q99720). Nature of the experiment: biochemical.
Details: not given
In kind it is binding. Details: μ and σ1 dual (binding to the σ1 receptor and the μ-opioid receptor expressed as Ki): key to the marks not given beside the values.
As for `CCC(=O)N(Cc1ccccc1)CC1(N2CCN(Cc3ccccc3)CC2)CCOCC1` [Example 14, N-benzyl-N-((4-(4-benzylpiperazin-1-yl)tetrahydro-2H-pyran-4-yl)methyl)propionamide], the “μ and σ1 dual (binding to the σ1 receptor and the μ-opioid receptor expressed as Ki)” value (from here on “μ and σ1 dual”) was “++”.

As for `CCOCCN1CCC(C2(CN(C(=O)CC)c3cccc(C(F)(F)F)n3)CCOCC2)CC1` [Example 177, N-((4-(1-(2-ethoxyethyl)piperidin-4-yl)tetrahydro-2H-pyran-4-yl)methyl)-N-(6-(trifluoromethyl)pyridin-2-yl)propionamide], the Ki was less than 500 nM.

Regarding `CCC(=O)N(CC(C)C)CC1(N2CCN(Cc3ccccc3)CC2)CCOCC1` [Example 15, N-((4-(4-benzylpiperazin-1-yl)tetrahydro-2H-pyran-4-yl)methyl)-N-isobutylpropionamide], the “μ and σ1 dual” value is recorded as “++”.

`CCC(=O)N(CC1(N2CCN(Cc3ccccc3)CC2)CCOC2(CCCC2)C1)c1cccc(C(F)(F)F)n1` (stereo not drawn) [Example 89, N-((9-(4-benzylpiperazin-1-yl)-6-oxaspiro[4.5]decan-9-yl)methyl)-N-(6-(trifluoromethyl)pyridin-2-yl)propionamide] showed a Ki of less than 100 nM.

On to `CCC(=O)N(CC1(N2CCN(Cc3ccccc3)CC2)CCOCC1)c1ncccc1C#N` [Example 58, N-((4-(4-benzylpiperazin-1-yl)tetrahydro-2H-pyran-4-yl)methyl)-N-(3-cyanopyridin-2-yl)propionamide], for which the “μ and σ1 dual” value is “++”.

Consider `CCC(=O)N(CC1(N2CCN(Cc3ccccc3)CC2)CC1)c1cccnc1` [Example 36, N-((1-(4-benzylpiperazin-1-yl)cyclopropyl)methyl)-N-(pyridin-3-yl)propionamide], for which the Ki is less than 500 nM.

On to `CCNC(=O)N(CC(C)(C)N1CCN(Cc2ccccc2)CC1)c1ccccc1` [Example 48, 1-(2-(4-benzylpiperazin-1-yl)-2-methylpropyl)-3-ethyl-1-phenylurea], for which the “μ and σ1 dual” value is on record as “++”.

`CCC(=O)N(CC1(N2CCN(Cc3ccccc3)CC2)CCOC(C)(C)C1)c1cccc(C#N)n1` (stereo not drawn) [Example 65, N-((4-(4-benzylpiperazin-1-yl)-2,2-dimethyltetrahydro-2H-pyran-4-yl)methyl)-N-(6-cyanopyridin-2-yl)propionamide] showed a Ki of less than 500 nM.

Consider `CCC(=O)N(CC1(N2CCN(C(C)c3ccccc3)CC2)CCOCC1)c1ccccn1` (stereo not drawn) [Example 134, N-((4-(4-(1-phenylethyl)piperazin-1-yl)tetrahydro-2H-pyran-4-yl)methyl)-N-(pyridin-2-yl)propionamide], for which the “μ and σ1 dual” value is “++”.

Take `CCOCCCN1CCN(C2(CN(C(=O)CC)c3cccc(C(F)(F)F)n3)CCOCC2)CC1` [Example 150, N-((4-(4-(3-ethoxypropyl)piperazin-1-yl)tetrahydro-2H-pyran-4-yl)methyl)-N-(6-(trifluoromethyl)pyridin-2-yl)propionamide]: the Ki is less than 500 nM.

Turning to `CCNC(=O)N(CC1(N2CCN(CCc3ccccc3)CC2)CCCCC1)c1ccccc1` [Example 50, 3-ethyl-1-((1-(4-phenethylpiperazin-1-yl)cyclohexyl)methyl)-1-phenylurea], the Ki is less than 500 nM.

As to `CCC(=O)N(CC1(N2CCN(CC(C)C)CC2)CCOCC1)c1ccccn1` [Example 151, N-((4-(4-isobutylpiperazin-1-yl)tetrahydro-2H-pyran-4-yl)methyl)-N-(pyridin-2-yl)propionamide], the Ki was more than 500 nM.

With `CCC(=O)N(CC1(N2CCN(Cc3ccccc3)CC2)CCOC2(CCCC2)C1)c1ccccn1` (stereo not drawn) [Example 17, N-((9-(4-benzylpiperazin-1-yl)-6-oxaspiro[4.5]decan-9-yl)methyl)-N-(pyridin-2-yl)propionamide], the Ki is less than 500 nM.

As for `CC(=O)N(CC1(N2CCN(CC(C)C)CC2)CCOCC1)c1cccc(C(F)(F)F)n1` [Example 40, N-((4-(4-isobutylpiperazin-1-yl)tetrahydro-2H-pyran-4-yl)methyl)-N-(6-(trifluoromethyl)pyridin-2-yl)acetamide], the “μ and σ1 dual” value is “++”.

With `CCC(=O)N(CC1(N2CCN(C(CO)c3ccccc3)CC2)CCOCC1)c1ccccn1` (stereo not drawn) [Example 181, N-((4-(4-(2-hydroxy-1-phenylethyl)piperazin-1-yl)tetrahydro-2H-pyran-4-yl)methyl)-N-(pyridin-2-yl)propionamide], the Ki is more than 500 nM.

As for `CCC(=O)N(CC1(N2CCN(Cc3ccccc3)CC2)CC1)c1ncccc1C#N` [Example 80, N-((1-(4-benzylpiperazin-1-yl)cyclopropyl)methyl)-N-(3-cyanopyridin-2-yl)propionamide], the Ki was less than 500 nM.

Consider `CCC(=O)N(CC1(N2CCN(Cc3ccccc3)CC2)CCOCC1)c1cccc(C#N)n1` [Example 84, N-((4-(4-benzylpiperazin-1-yl)tetrahydro-2H-pyran-4-yl)methyl)-N-(6-cyanopyridin-2-yl)propionamide], for which the Ki was less than 500 nM.

As for `CCC(=O)N(CC1(N2CCN(Cc3ccccc3)CC2)CCOCC1)c1ccccc1O` [Example 54, N-((4-(4-benzylpiperazin-1-yl)tetrahydro-2H-pyran-4-yl)methyl)-N-(2-hydroxyphenyl)propionamide], the Ki was less than 500 nM.

Molecule `CCC(=O)N(CC1(N2CCN(C(C)CC)CC2)CCOC(C)(C)C1)c1cccc(C(F)(F)F)n1` (stereo not drawn) [Example 162, N-((4-(4-sec-butylpiperazin-1-yl)-2,2-dimethyltetrahydro-2H-pyran-4-yl)methyl)-N-(6-(trifluoromethyl)pyridin-2-yl)propionamide] returned a Ki of more than 500 nM.

`CCC(=O)N(CC1(N2CCN(CC(C)C)CC2)CCOCC1)c1ccccc1` [Example 135, N-((4-(4-isobutylpiperazin-1-yl)tetrahydro-2H-pyran-4-yl)methyl)-N-phenylpropionamide]: the Ki is less than 500 nM.

In turn, `CCC(=O)N(CC1(N2CCN(Cc3cccnc3)CC2)CC1)c1ccccc1` [Example 119, N-phenyl-N-((1-(4-(pyridin-3-ylmethyl)piperazin-1-yl)cyclopropyl)methyl)propionamide] gave a Ki of less than 500 nM.

With `CCC(=O)N(CC1(N2CCN(Cc3ccccc3)CC2)CCOCC1)c1cccc(C#N)c1` [Example 57, N-((4-(4-benzylpiperazin-1-yl)tetrahydro-2H-pyran-4-yl)methyl)-N-(3-cyanophenyl)propionamide], the “μ and σ1 dual” value is on record as “++”.

`CCC(=O)N(CC1(N2CCN(CCC(C)C)CC2)CCOC(C)(C)C1)c1ccccn1` (stereo not drawn) [Example 164, N-((4-(4-isopentylpiperazin-1-yl)-2,2-dimethyltetrahydro-2H-pyran-4-yl)methyl)-N-(pyridin-2-yl)propionamide]: the “μ and σ1 dual” value is reported as “++”.

`CCC(=O)N(CC1(N2CCN(CCOC(C)C)CC2)CC1)c1cccc(C(F)(F)F)n1` [Example 179, N-((1-(4-(2-isopropoxyethyl)piperazin-1-yl)cyclopropyl)methyl)-N-(6-(trifluoromethyl)pyridin-2-yl)propionamide] gave a Ki of less than 500 nM.

Regarding `CCC(=O)N(CC1(N2CCN(C(C)CC)CC2)CCOCC1)c1ccccn1` (stereo not drawn) [Example 154, N-((4-(4-sec-butylpiperazin-1-yl)tetrahydro-2H-pyran-4-yl)methyl)-N-(pyridin-2-yl)propionamide], the inhibition constant Ki is more than 500 nM.

`CCC(=O)N(CC1(N2CCN(Cc3ccccc3)CC2)CC1)c1cncc(F)c1` [Example 93, N-((1-(4-benzylpiperazin-1-yl)cyclopropyl)methyl)-N-(5-fluoropyridin-3-yl)propionamide] registered a Ki of less than 500 nM.

For the molecule `CCC(=O)N(CC1(N2CCN(CCC(C)C)CC2)CCOC2(CCCC2)C1)c1cccc(C(F)(F)F)n1` (stereo not drawn) [Example 173, N-((9-(4-isopentylpiperazin-1-yl)-6-oxaspiro[4.5]decan-9-yl)methyl)-N-(6-(trifluoromethyl)pyridin-2-yl)propionamide], the Ki was less than 500 nM.

Molecule `CCC(=O)N(CC1(N2CCN(Cc3ccccc3)CC2)CC1)c1cccnc1C(F)(F)F` [Example 76, N-((1-(4-benzylpiperazin-1-yl)cyclopropyl)methyl)-N-(2-(trifluoromethyl)pyridin-3-yl)propionamide] had a Ki of less than 500 nM.

Consider `CCC(=O)N(CC(C)(C)N1CCN(CC(C)C)CC1)c1ncccc1F` [Example 74, N-(3-fluoropyridin-2-yl)-N-(2-(4-isobutylpiperazin-1-yl)-2-methylpropyl)propionamide], for which the “μ and σ1 dual” value is on record as “++”.

The molecule `CCC(=O)N(CC1(N2CCN(Cc3ccccn3)CC2)CCOCC1)c1ccccc1` [Example 102, N-phenyl-N-((4-(4-(pyridin-2-ylmethyl)piperazin-1-yl)tetrahydro-2H-pyran-4-yl)methyl)propionamide] registered a Ki of more than 500 nM.

Molecule `CCC(=O)N(CC1(N2CCN(Cc3ccccc3)CC2)CCOC(C)(C)C1)c1ncccc1F` (stereo not drawn) [Example 64, N-((4-(4-benzylpiperazin-1-yl)-2,2-dimethyltetrahydro-2H-pyran-4-yl)methyl)-N-(3-fluoropyridin-2-yl)propionamide] displayed a Ki of less than 500 nM.

The same experiment, now with this note: combined class for both Ki-σ1 (assay A1) and Ki-μ (assay A2); human receptors, radioligand binding; read-out: μ and σ1 dual (binding to the σ1 receptor and the μ-opioid receptor expressed as Ki).
On to `CN1CCC(CN(C(=O)c2nccs2)c2ccccc2)(N2CCN(Cc3ccccc3)CC2)CC1` [Example 41, N-((4-(4-benzylpiperazin-1-yl)-1-methylpiperidin-4-yl)methyl)-N-phenylthiazole-2-carboxamide], for which the Ki was more than 500 nM.

Staying with this experiment, now noted: read-out: μ and σ1 dual (binding to the σ1 receptor and the μ-opioid receptor expressed as Ki).
With `CCOCCN1CC2CN(C3(CN(C(=O)CC)c4cccc(C(F)(F)F)n4)CCOCC3)CC2C1` (stereo not drawn) [Example 200, N-((4-(5-(2-ethoxyethyl)hexahydropyrrolo[3,4-c]pyrrol-2(1H)-yl)tetrahydro-2H-pyran-4-yl)methyl)-N-(6-(trifluoromethyl)pyridin-2-yl)propionamide], the Ki is more than 500 nM.

The term Ki denotes a measure of affinity in units of concentration, obtained from inhibition or displacement.
